Assay results from patent US20090028925A1, “Novel Phosphinic Acid-Containing Thyromimetics” (priority 2005, published 2009).
Where two headings read alike, the source gives them in different places.

Key:
[1] = biological target: T1, human thyroid hormone receptors TRα1 (Homo sapiens, UniProt P10827); test: Receptor binding to TRα1 (gel filtration and scintillation proximity assay, labeled T3); conditions: read-out: Ki TRα
T1 construct: made in house; host or cells: Sf9 insect cells (baculovirus)
T1 sequence (P10827 1-410 isoform P10827-2): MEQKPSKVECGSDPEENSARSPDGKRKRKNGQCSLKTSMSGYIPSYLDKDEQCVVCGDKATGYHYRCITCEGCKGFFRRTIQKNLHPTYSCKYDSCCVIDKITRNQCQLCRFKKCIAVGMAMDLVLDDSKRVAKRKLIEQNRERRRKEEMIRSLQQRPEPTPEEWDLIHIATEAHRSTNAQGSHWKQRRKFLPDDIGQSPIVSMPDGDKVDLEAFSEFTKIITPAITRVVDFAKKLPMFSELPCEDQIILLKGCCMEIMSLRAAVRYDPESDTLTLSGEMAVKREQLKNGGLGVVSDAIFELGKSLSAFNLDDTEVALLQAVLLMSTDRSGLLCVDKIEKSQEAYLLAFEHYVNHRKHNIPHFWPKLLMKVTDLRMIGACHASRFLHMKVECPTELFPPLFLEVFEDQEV
T1 sequence (P19793 1-462 partner): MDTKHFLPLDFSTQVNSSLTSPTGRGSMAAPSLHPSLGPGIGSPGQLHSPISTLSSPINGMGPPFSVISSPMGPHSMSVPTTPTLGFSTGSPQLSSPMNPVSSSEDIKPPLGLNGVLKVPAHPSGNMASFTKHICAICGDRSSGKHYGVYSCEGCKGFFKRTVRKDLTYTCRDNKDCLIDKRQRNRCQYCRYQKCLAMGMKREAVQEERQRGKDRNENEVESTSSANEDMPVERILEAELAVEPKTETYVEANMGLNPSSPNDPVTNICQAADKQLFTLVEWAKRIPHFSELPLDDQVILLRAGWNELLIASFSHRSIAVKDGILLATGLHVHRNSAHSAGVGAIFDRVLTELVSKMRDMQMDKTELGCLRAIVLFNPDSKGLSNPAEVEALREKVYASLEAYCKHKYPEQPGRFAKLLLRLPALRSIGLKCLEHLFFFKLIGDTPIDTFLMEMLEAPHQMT
Protocol: (§1) Methods: Baculoviruses expressing TRα1, TRβ1 and RXRα were generated using cDNA and other reagents from Invitrogen (Carlsbad, Calif.). To produce TR/RXR heterodimer proteins, the sf9 insect cells were first grown to a density of 1-5×10^5 cells/mL. […] and RXRα baculovirus stocks were added to the cell culture with a ratio of 1 to 1 (multiplicity of infection=10). The cells were harvested three days after the infection.
(§2) Binding of compounds to either the TRα1 or TRβ1 were also performed by means of scintillation proximity assays (SPA). The SPA assay, a common method used for the quantitation of receptor-ligand equilibria, makes use of special beads coated with a scintillant and a capture molecule, copper, which binds to the histidine-tagged α or β receptor.

plasma cholesterol = test: Cholesterol lowering in hypercholesterolemic rats; format: in vivo; conditions: for change in vivo at 0.2 mg/kg/day / change in vivo at 0.5 mg/kg/day: Rattus norvegicus, read-out: % Cholesterol Lowering; for change in vivo at 0.5 mg/kg/day: delivered p.o. (0.5 mg/kg/d)
[2] = biological target: T2, human thyroid hormone receptors TRβ1 (Homo sapiens, UniProt P10828); test: Receptor binding to TRβ1 (gel filtration and scintillation proximity assay, labeled T3); conditions: read-out: Ki TRβ
T2 construct: made in house; host or cells: Sf9 insect cells (baculovirus)
T2 sequence (P10828 1-461): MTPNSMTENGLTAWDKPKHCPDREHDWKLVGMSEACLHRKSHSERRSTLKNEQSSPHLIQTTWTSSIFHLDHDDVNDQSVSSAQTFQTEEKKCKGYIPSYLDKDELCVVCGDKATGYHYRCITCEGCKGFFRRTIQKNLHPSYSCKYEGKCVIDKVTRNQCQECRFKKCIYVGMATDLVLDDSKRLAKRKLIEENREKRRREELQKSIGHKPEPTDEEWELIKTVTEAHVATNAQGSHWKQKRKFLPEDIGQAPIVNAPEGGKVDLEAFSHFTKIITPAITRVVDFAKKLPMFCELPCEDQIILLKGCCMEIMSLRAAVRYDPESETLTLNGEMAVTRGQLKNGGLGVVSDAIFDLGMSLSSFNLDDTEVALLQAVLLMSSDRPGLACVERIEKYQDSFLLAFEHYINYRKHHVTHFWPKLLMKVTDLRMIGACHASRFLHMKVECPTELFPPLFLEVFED
T2 sequence (P19793 1-462 partner): T1 sequence (P19793 1-462 partner)
Protocol: as §1, §2

[3] = po, delivered p.o. (0.2 mg/kg/d), percentage change from pre-dose cholesterol
[4] = ip, delivered i.p (0.2 mg/kg/d), percentage change from pre-dose cholesterol
[5] = po, percentage change from pre-dose cholesterol

Ki ([1]; SPA data) | Ki ([2]; SPA data) | Structure (SMILES) | change in vivo at 0.2 mg/kg/day (plasma cholesterol; [3]) | change in vivo at 0.2 mg/kg/day (plasma cholesterol; [4]) | also measured
4 nM | 0.4 nM | CC(C)c1cc(Oc2c(Br)cc(CP(C)(=O)O)cc2Br)ccc1O [Compound 71, [3,5-Dibromo-4-(4′-hydroxy-3′-isopropylphenoxy)benzyl]methylphosphinic Acid] | -54.4% | – | –
– | – | Cc1cc(CCP(=O)(O)O)cc(C)c1Cc1ccc(O)c(C(C)C)c1 [Compound 24-1, 2-[3,5-dimethyl-4-(4′-hydroxy-3′-iso-propylbenzyl)phenyl]ethylphosphonic acid] | – | -35.4% | Ki [2]: 31 nM
– | – | CC(C)c1cc(Oc2c(Br)cc(OCP(=O)(O)O)cc2Br)ccc1O [Compound 8-1, [3,5-dibromo-4-(3′-iso-propyl-4′-hydroxyphenoxy)phenoxy]methylphosphonic acid] | -32.2% | – | Ki [1]: 18.6 nM; Ki [2]: 2.51 nM
216 nM | 14 nM | Cc1cc2oc(P(=O)(O)O)cc2c(C)c1Cc1ccc(O)c(C(C)C)c1 [Compound 45, [4,6-Dimethyl-5-(4′-hydroxy-3′-iso-propyl)benzyl]benzofuran-2-phosphonic Acid] | -40.4% | -46.3% | –
30 nM | 1.1 nM | Cc1cc(OCP(=O)(O)O)cc(C)c1Cc1ccc(O)c(Cc2ccc(F)cc2)c1 [Compound 40, [3,5-dimethyl-4-[3′-(4-fluoro-benzyl)-4′-hydroxy-benzyl]phenoxy]methylphosphonic acid] | -27.3% | -64.2% | –
– | – | CC(C)c1cc(Oc2c(Cl)cc(CP(=O)(O)O)cc2Cl)ccc1O [Compound 19, [3,5-dichloro-4-(4′-hydroxy-3′-iso-propylphenoxy)]benzylphosphonic acid] | – | -19% | Ki [1]: 304 nM; Ki [2]: 52 nM
375 nM | 14 nM | Cc1cc(/C=C/P(=O)(O)O)cc(C)c1Oc1ccc(O)c(C(C)C)c1 [Compound 28, trans-2-[3,5-dimethyl-4-(4′-hydroxy-3′-iso-propylphenoxy)phenyl]vinylphosphonic acid] | – | -20.5% | –
– | – | CC(C)c1cc(Oc2c(Br)cc(NCP(=O)(O)O)cc2Br)ccc1O [Compound 22-1, [3,5-dibromo-4-(4′-hydroxy-3′-iso-propylphenoxy)phenylamino]methylphosphonic acid] | -19.9% | – | Ki [2]: 1.5 nM
24.3 nM | 2.5 nM | Cc1cc(NCP(=O)(O)O)cc(C)c1Cc1ccc(O)c(C(C)C)c1 [Compound 47, [3,5-Dimethyl 4-(4′-hydroxy-3′-iso-propylbenzyl)-phenylamino]methylphosphonic Acid] | – | -29.3% | –
98 nM | 7.6 nM | Cc1cc(OC(F)(F)P(=O)(O)O)cc(C)c1Cc1ccc(O)c(C(C)C)c1 [Compound 7-6, difluoro-[3,5-dimethyl-4-(4′-hydroxy-3′-iso-propylbenzyl)phenoxy]methylphosphonic acid] | – | -13.5% | –
31 nM | 6.6 nM | CCC(C)c1cc(Cc2c(C)cc(OCP(=O)(O)O)cc2C)ccc1O (centres unmarked) [Compound 7-3, [3,5-dimethyl-4-(3′-sec-butyl-4′-hydroxybenzyl)phenoxy]methylphosphonic acid] | -36.5% | -45.4% | –
20 nM | 2 nM | Cc1cc(OCP(=O)(O)O)c(I)c(C)c1Cc1ccc(O)c(C(C)C)c1 [Compound 46, [3,5-Dimethyl-4-(4′-hydroxy-3′-iso-propylbenzyl)-2-iodophenoxy]methylphosphonic Acid] | -23.8% | -29.6% | –
– | 106 nM | Cc1cc(OCP(=O)(O)O)cc(C)c1Cc1ccc(O)c(-c2ccccc2)c1 [Compound 7-1, [3,5-dimethyl-4-(4′-hydroxy-3′-phenylbenzyl)phenoxy]methylphosphonic acid] | -12.2% | – | Ki [1]: 1170 nM
16 nM | – | O=P(O)(O)Cc1cc(I)c(Oc2ccc(O)c(I)c2)c(I)c1 [Compound 6, 3,5-diiodo-4-(4′-hydroxy-3′-iodophenoxy)benzylphosphonic acid] | – | -20.5% | Ki [2]: 26 nM
> 2000 nM | > 2000 nM | Cc1cc(OCP(=O)(O)O)cc(C)c1Cc1ccc(F)c(C(C)C)c1 [Compound 27, [3,5-dimethyl-4-(4′-fluoro-3′-iso-propylbenzyl)phenoxy]methylphosphonic acid] | – | -20.8% | –
540 nM | 73 nM | Cc1cc(OCP(=O)(O)O)cc(C)c1Oc1ccc(O)c(C(C)C)c1 [Compound 31, [3,5-dimethyl-4-(4′-hydroxy-3′-iso-propylphenoxy)phenoxy]methylphosphonic acid] | – | -21.1% | –
254 nM | 5.4 nM | Cc1cc(OCP(=O)(O)O)cc(C)c1Cc1ccc(O)c(Cc2ccccc2)c1 [Compound 38, [4-(3′-benzyl-4′-hydroxy-benzyl)-3,5-dimethylphenoxy]methylphosphonic acid] | – | -21.7% | –
112 nM | 48 nM | Cc1cc(Cc2c(C)cc(OCP(=O)(O)O)cc2C)cc(C(C)C)c1O [Compound 7-10, [3,5-dimethyl-4-(4′-hydroxy-3′-iso-propyl-5′-methyl benzyl)phenoxy]methylphosphonic Acid] | – | -25.8% | –
129 nM | 9 nM | Cc1cc(OCP(=O)(O)O)cc(C)c1Cc1ccc(O)c(C2CC2)c1 [Compound 48, [4-(3′-cyclopropyl-4′-hydroxybenzyl)-3,5-dimethylphenoxy]methylphosphonic acid] | – | -23.4% | –
– | – | Cc1cc(OC[P@@]2(=O)OCC[C@@H](c3cccc(Br)c3)O2)cc(C)c1Cc1ccc(O)c(C(C)C)c1 [cis-13-2] | – | – | efficacy in lowering cholesterol (plasma cholesterol; another experiment, hypercholesterolemic rats): not efficacious
– | – | CC(C)c1cc(Oc2c(I)cc(OC[P@@]3(=O)OCC[C@@H](c4cccc(Cl)c4)O3)cc2I)ccc1O [Compound 13-10] | – | – | change in vivo at 0.5 mg/kg/day (plasma cholesterol; [5]): -25.8%
– | – | CCOC(=O)[C@H](C)NP(=O)(COc1cc(C)c(Cc2ccc(O)c(C(C)CC)c2)c(C)c1)N[C@@H](C)C(=O)OCC (stereo partly drawn) [Compound 15-4, di-N-(L-1-ethoxycarbonylethylamino)[3,5-dimethyl-4-(4′-hydroxy-3′-sec-butylbenzyl)phenoxy]methylphosphonamide] | – | – | change in vivo at 0.5 mg/kg/day (plasma cholesterol; [5]): -39.6%

Structure (SMILES) | Ki ([1]; SPA data) | Ki ([2]; SPA data) | change in vivo at 0.2 mg/kg/day (plasma cholesterol; [3]) | change in vivo at 0.2 mg/kg/day (plasma cholesterol; [4]) | also measured
CC(C)c1cc(Oc2c(Br)cc(CCP(=O)(O)O)cc2Br)ccc1O [Compound 67, 2-[3,5-dibromo-4-(4′-hydroxy-3′-isopropylphenoxy)phenyl]ethylphosphonic Acid] | 37 nM | 1.8 nM | -17% | – | –
COP(=O)(O)Cc1cc(Br)c(Oc2ccc(O)c(C(C)C)c2)c(Br)c1 [Compound 69-2, [3,5-dibromo-4-(4′-hydroxy-3′-isopropylphenoxy)benzyl]phosphonic Acid Monomethyl Ester] | 2.8 nM | 0.8 nM | – | – | change in vivo at 0.2 mg/kg/day (plasma cholesterol; po): -49.9%
